IC50 data for five compounds are collected here from ChEMBL document CHEMBL1158710, “Cytotoxic flavonoids from Platymiscium floribundum” (J Nat Prod, 2005).

≈ marks a conversion by molar mass, not a printed value.

Common to all, as to type: functional, cell-based
One test has as its system HL-60. The test is described as follows: Cytotoxicity against human HL60 cells after 72 hrs by MTT assay. The settings on record: HL-60, 72 h. For orientation: Formazan colour is commonly taken as a measure of viable cells.
The next test concerns CCRF-CEM. The test is described as follows: Cytotoxicity against human CEM cells after 72 hrs by MTT assay.
A further test relates to B16. The test is described as follows: Cytotoxicity against mouse B16 cells after 72 hrs by MTT assay. The settings on record: B16, 72 h.
The subject of a further test is MCF7. In words: Cytotoxicity against human MCF7 cells after 72 hrs by MTT assay. The conditions noted are these: MCF7, 72 h.
A further test concerns HCT-8. The test is described as follows: Cytotoxicity against human HCT8 cells after 72 hrs by MTT assay. The settings on record: HCT-8, 72 h.

In the case of `COc1ccc2c(c1)OC1c3cc(OC)c(OC)cc3OCC21` (stereo unspecified), the IC50 in the test with HL-60 was 0.1 µg/mL (≈ 0.318 µM); with CCRF-CEM, 0.6 µg/mL (≈ 1.91 µM); in the test on B16, 2.9 µg/mL (≈ 9.23 µM); in the test on MCF7, 0.7 µg/mL (≈ 2.23 µM); in the test with HCT-8, 0.6 µg/mL (≈ 1.91 µM).

With `COc1cccc2c1C(=O)c1c(O)c3c(c(O)c1C2=O)C[C@@](O)(C(=O)CO)C[C@@H]3O[C@H]1C[C@H](N)[C@H](O)[C@H](C)O1` [DOXORUBICIN], in the test on MCF7, the IC50 came out at 0.2 µg/mL (≈ 0.368 µM).

In the case of `COc1ccc2c(c1)O[C@H]1c3ccc(OC)cc3OC[C@@H]21` [HOMOPTEROCARPIN], the IC50 was determined as 3.9 µg/mL (≈ 13.7 µM) with HL-60; 5.5 µg/mL (≈ 19.3 µM) with CCRF-CEM; 5.2 µg/mL (≈ 18.3 µM) with B16; 18.5 µg/mL (≈ 65.1 µM) in the test with MCF7; 6.4 µg/mL (≈ 22.5 µM) in the test with HCT-8.

In the case of `O=C1C[C@@H](c2ccc(O)cc2)Oc2cc(O)ccc21` [LIQUIRTIGENIN], the IC50 was 22.5 µg/mL (≈ 87.8 µM) in the test on HL-60; > 25 µg/mL in the test with CCRF-CEM; 5 µg/mL (≈ 19.5 µM) in the test on B16; > 25 µg/mL with MCF7; 19.5 µg/mL (≈ 76.1 µM) with HCT-8.

`COc1ccc2c(c1)OC1c3ccc(O)c(O)c3OCC21` (stereo unspecified) [VESTICARPAN]: the IC50 in the test on HL-60 was determined as 6.9 µg/mL (≈ 24.1 µM); with CCRF-CEM, 7.3 µg/mL (≈ 25.5 µM); in the test on B16, 2.7 µg/mL (≈ 9.43 µM); with MCF7 it was 10 µg/mL (≈ 34.9 µM); in the test on HCT-8, 12.4 µg/mL (≈ 43.3 µM).

For orientation: IC50 means the concentration needed to halve the response being measured.
